Laboratory results: the NIST ThermoML archive (doi:10.1016/j.tca.2013.08.031)

Assay: molar heat capacity at constant volume
Details: Fluid (supercritical or subcritical phases), Vacuum adiabatic calorimetry

CCC(C)O (stereo not given) [butan-2-ol]
Details | molar heat capacity at constant volume [J/K/mol]
535.75 K, Mass density=276.45 kg/m3 | 527.97
535.77 K, Mass density=276.45 kg/m3 | 533.08
535.79 K, Mass density=276.45 kg/m3 | 548.5
535.81 K, Mass density=276.45 kg/m3 | 529.67
535.83 K, Mass density=276.45 kg/m3 | 536.49
535.85 K, Mass density=276.45 kg/m3 | 560.43
535.86 K, Mass density=276.45 kg/m3 | 562.14
535.88 K, Mass density=276.45 kg/m3 | 565.55
535.9 K, Mass density=276.45 kg/m3 | 627.07
535.92 K, Mass density=198.25 kg/m3 | 287.44
535.92 K, Mass density=245.67 kg/m3 | 437.17
535.92 K, Mass density=276.45 kg/m3 | 603.13
535.92 K, Mass density=279.19 kg/m3 | 513.14
535.92 K, Mass density=284.93 kg/m3 | 498.99
535.92 K, Mass density=286.65 kg/m3 | 532.71
535.92 K, Mass density=301.19 kg/m3 | 383.21
535.92 K, Mass density=347.06 kg/m3 | 252.01
535.94 K, Mass density=284.93 kg/m3 | 419.68
535.94 K, Mass density=286.65 kg/m3 | 578.37
535.95 K, Mass density=284.93 kg/m3 | 421.31
535.95 K, Mass density=286.65 kg/m3 | 524.41
535.97 K, Mass density=284.93 kg/m3 | 349.85
535.97 K, Mass density=286.65 kg/m3 | 524.41
535.99 K, Mass density=284.93 kg/m3 | 316.57
536.01 K, Mass density=284.93 kg/m3 | 314.87
536.01 K, Mass density=286.65 kg/m3 | 402.85
536.02 K, Mass density=284.93 kg/m3 | 309.9
536.02 K, Mass density=286.65 kg/m3 | 345.48
536.04 K, Mass density=284.93 kg/m3 | 311.53
536.04 K, Mass density=286.65 kg/m3 | 354.45
536.06 K, Mass density=284.93 kg/m3 | 311.53
536.06 K, Mass density=286.65 kg/m3 | 328.36
536.07 K, Mass density=284.93 kg/m3 | 306.57
536.07 K, Mass density=286.65 kg/m3 | 328.58
536.1 K, Mass density=198.25 kg/m3 | 281.66
536.1 K, Mass density=245.67 kg/m3 | 331.55
536.1 K, Mass density=279.19 kg/m3 | 476.23
536.1 K, Mass density=284.93 kg/m3 | 291.59
536.1 K, Mass density=286.65 kg/m3 | 323.99
536.1 K, Mass density=301.19 kg/m3 | 296.49
536.1 K, Mass density=347.06 kg/m3 | 251.27
536.29 K, Mass density=198.25 kg/m3 | 285.44
536.29 K, Mass density=245.67 kg/m3 | 329.17
536.29 K, Mass density=276.45 kg/m3 | 321.32
536.29 K, Mass density=279.19 kg/m3 | 304.71
536.29 K, Mass density=284.93 kg/m3 | 286.04
536.29 K, Mass density=286.65 kg/m3 | 321.09
536.29 K, Mass density=301.19 kg/m3 | 280.18
536.29 K, Mass density=347.06 kg/m3 | 249.79
536.47 K, Mass density=245.67 kg/m3 | 323.47
536.47 K, Mass density=276.45 kg/m3 | 313.68
536.47 K, Mass density=279.19 kg/m3 | 298.27
536.47 K, Mass density=284.93 kg/m3 | 280.77
536.47 K, Mass density=286.65 kg/m3 | 317.39
536.47 K, Mass density=301.19 kg/m3 | 281.66
536.47 K, Mass density=347.06 kg/m3 | 252.75
536.65 K, Mass density=245.67 kg/m3 | 321.24
536.65 K, Mass density=276.45 kg/m3 | 308.64
536.65 K, Mass density=279.19 kg/m3 | 293.23
536.65 K, Mass density=284.93 kg/m3 | 276.92
536.65 K, Mass density=286.65 kg/m3 | 311.53
536.65 K, Mass density=301.19 kg/m3 | 277.96
536.65 K, Mass density=347.06 kg/m3 | 246.82
536.83 K, Mass density=245.67 kg/m3 | 318.35
536.83 K, Mass density=276.45 kg/m3 | 300.12
536.83 K, Mass density=279.19 kg/m3 | 287.74
536.83 K, Mass density=284.93 kg/m3 | 274.25
536.84 K, Mass density=347.06 kg/m3 | 250.53
537.02 K, Mass density=279.19 kg/m3 | 289.37
537.02 K, Mass density=284.93 kg/m3 | 272.03
537.02 K, Mass density=301.19 kg/m3 | 263.13
537.02 K, Mass density=347.06 kg/m3 | 248.31
537.2 K, Mass density=245.67 kg/m3 | 296.34
537.2 K, Mass density=276.45 kg/m3 | 295.37
537.2 K, Mass density=279.19 kg/m3 | 287.81
537.2 K, Mass density=284.93 kg/m3 | 271.51
537.2 K, Mass density=286.65 kg/m3 | 304.94
537.2 K, Mass density=301.19 kg/m3 | 266.84
537.38 K, Mass density=245.67 kg/m3 | 296.56
537.38 K, Mass density=276.45 kg/m3 | 285.37
537.38 K, Mass density=279.19 kg/m3 | 282.48
537.38 K, Mass density=284.93 kg/m3 | 270.32
537.38 K, Mass density=286.65 kg/m3 | 304.42
537.38 K, Mass density=301.19 kg/m3 | 263.13
537.57 K, Mass density=245.67 kg/m3 | 297.52
537.57 K, Mass density=276.45 kg/m3 | 284.11
537.57 K, Mass density=279.19 kg/m3 | 284.26
537.57 K, Mass density=284.93 kg/m3 | 268.17
537.57 K, Mass density=286.65 kg/m3 | 301.23
537.57 K, Mass density=301.19 kg/m3 | 260.17
537.75 K, Mass density=276.45 kg/m3 | 282.92
537.75 K, Mass density=284.93 kg/m3 | 267.36
537.75 K, Mass density=286.65 kg/m3 | 302.27
537.75 K, Mass density=301.19 kg/m3 | 260.17
537.93 K, Mass density=117 kg/m3 | 227.92
537.93 K, Mass density=279.19 kg/m3 | 277.21
537.93 K, Mass density=286.65 kg/m3 | 301.23
537.93 K, Mass density=301.19 kg/m3 | 259.43
538.11 K, Mass density=117 kg/m3 | 182.93
538.11 K, Mass density=279.19 kg/m3 | 274.92
538.11 K, Mass density=301.19 kg/m3 | 253.5
538.3 K, Mass density=279.19 kg/m3 | 277.66
538.3 K, Mass density=286.65 kg/m3 | 295.15
538.3 K, Mass density=301.19 kg/m3 | 255.72
538.48 K, Mass density=117 kg/m3 | 269.06
